Numbers after ± are expanded uncertainties.
Test: xn = mol fraction of the nth substance listed
Conditions: 100 kPa, Liquid; for speed of sound: Frequency=5 MHz, Pulse-echo method; for mass density: Vibrating tube method

OCCCCCO [1,5-pentanediol] + O
Conditions	mass density [kg/m3]	speed of sound [m/s]
293.15 K, x1 = 0.005	997.92 ± 0.53	–
293.15 K, x1 = 0.0101	997.99 ± 1	–
293.15 K, x1 = 0.0196	998.58 ± 1	–
293.15 K, x1 = 0.0251	999.15 ± 1	–
293.15 K, x1 = 0.0304	999.8 ± 1	–
293.15 K, x1 = 0.05	1001.74 ± 1	–
293.15 K, x1 = 0.0769	1003.5 ± 1.1	–
293.15 K, x1 = 0.1002	1004.72 ± 1.1	–
293.15 K, x1 = 0.1438	1005.61 ± 1.1	–
293.15 K, x1 = 0.1548	–	1691.8 ± 1.3
293.15 K, x1 = 0.1602	–	1692.6 ± 1.3
293.15 K, x1 = 0.1649	–	1693.2 ± 1.3
293.15 K, x1 = 0.1671	–	1693.5 ± 1.3
293.15 K, x1 = 0.1718	–	1694 ± 1.3
293.15 K, x1 = 0.1738	–	1694.1 ± 1.3
293.15 K, x1 = 0.1776	–	1694.5 ± 1.3
293.15 K, x1 = 0.1807	–	1694.7 ± 1.3
293.15 K, x1 = 0.1845	1005.62 ± 1.1	–
293.15 K, x1 = 0.1846	–	1694.9 ± 1.3
293.15 K, x1 = 0.1875	–	1695.1 ± 1.3
293.15 K, x1 = 0.19	–	1695.2 ± 1.3
293.15 K, x1 = 0.1941	–	1695.4 ± 1.3
293.15 K, x1 = 0.1964	–	1695.5 ± 1.3
293.15 K, x1 = 0.2006	–	1695.5 ± 1.3
293.15 K, x1 = 0.2029	–	1695.6 ± 1.3
293.15 K, x1 = 0.2051	–	1695.6 ± 1.3
293.15 K, x1 = 0.2087	–	1695.7 ± 1.3
293.15 K, x1 = 0.2114	–	1695.7 ± 1.3
293.15 K, x1 = 0.2217	–	1695.6 ± 1.3
293.15 K, x1 = 0.2315	–	1695.4 ± 1.3
293.15 K, x1 = 0.2384	–	1695.2 ± 1.3
293.15 K, x1 = 0.246	–	1695 ± 1.3
293.15 K, x1 = 0.2503	1004.77 ± 1.2	–
293.15 K, x1 = 0.2552	–	1694.6 ± 1.4
293.15 K, x1 = 0.2648	–	1694.1 ± 1.4
293.15 K, x1 = 0.2739	–	1693.7 ± 1.4
293.15 K, x1 = 0.2857	–	1693 ± 1.4
293.15 K, x1 = 0.2983	–	1692.1 ± 1.4
293.15 K, x1 = 0.3	1003.78 ± 1.2	–
293.15 K, x1 = 0.3133	–	1691.1 ± 1.4
293.15 K, x1 = 0.3287	–	1689.9 ± 1.4
293.15 K, x1 = 0.3343	1003.14 ± 1.3	–
293.15 K, x1 = 0.3552	–	1687.7 ± 1.4
293.15 K, x1 = 0.3729	–	1686.1 ± 1.5
293.15 K, x1 = 0.4002	–	1683.5 ± 1.5
293.15 K, x1 = 0.4171	1001.32 ± 1.4	–
293.15 K, x1 = 0.4241	–	1681 ± 1.5
293.15 K, x1 = 0.4527	–	1677.7 ± 1.6
293.15 K, x1 = 0.454	1000.44 ± 1.4	–
293.15 K, x1 = 0.478	–	1674.7 ± 1.6
293.15 K, x1 = 0.5003	999.3 ± 1.5	–
293.15 K, x1 = 0.5024	–	1671.6 ± 1.6
293.15 K, x1 = 0.5266	–	1668.4 ± 1.6
293.15 K, x1 = 0.5362	998.5 ± 1.5	–
293.15 K, x1 = 0.5491	–	1665.3 ± 1.7
293.15 K, x1 = 0.5701	–	1662.4 ± 1.7
293.15 K, x1 = 0.5912	–	1659.4 ± 1.7
293.15 K, x1 = 0.6123	–	1656.4 ± 1.8
293.15 K, x1 = 0.6177	996.9 ± 1.7	–
293.15 K, x1 = 0.631	–	1653.7 ± 1.8
293.15 K, x1 = 0.6478	996.3 ± 1.7	–
293.15 K, x1 = 0.656	–	1650.2 ± 1.8
293.15 K, x1 = 0.6746	–	1647.5 ± 1.8
293.15 K, x1 = 0.6953	–	1644.6 ± 1.9
293.15 K, x1 = 0.7025	995.2 ± 1.8	–
293.15 K, x1 = 0.7147	–	1641.9 ± 1.9
293.15 K, x1 = 0.7344	–	1639.1 ± 1.9
293.15 K, x1 = 0.7504	994.4 ± 1.9	–
293.15 K, x1 = 0.7546	–	1636.4 ± 1.9
293.15 K, x1 = 0.7797	–	1633 ± 2
293.15 K, x1 = 0.7927	993.6 ± 2	–
293.15 K, x1 = 0.8014	–	1630.2 ± 2
293.15 K, x1 = 0.8265	–	1627 ± 2
293.15 K, x1 = 0.8497	–	1624.1 ± 2.1
293.15 K, x1 = 0.8605	992.3 ± 2.1	–
293.15 K, x1 = 0.8696	–	1621.6 ± 2.1
293.15 K, x1 = 0.9004	991.5 ± 2.2	–
293.15 K, x1 = 0.9029	–	1617.5 ± 2.2
293.15 K, x1 = 0.9198	–	1615.4 ± 2.2
293.15 K, x1 = 0.9259	–	1614.7 ± 2.2
293.15 K, x1 = 0.9367	–	1613.3 ± 2.2
293.15 K, x1 = 0.9484	–	1611.8 ± 2.2
293.15 K, x1 = 0.9496	990.4 ± 2.3	–
293.15 K, x1 = 0.9601	–	1610.3 ± 2.2
293.15 K, x1 = 0.97	–	1609.1 ± 2.3
293.15 K, x1 = 0.9804	–	1607.7 ± 2.3
293.15 K, x1 = 0.9884	–	1606.6 ± 2.3
293.15 K, x1 = 0.9943	–	1605.8 ± 2.3
293.15 K, x1 = 1	989.3 ± 2.1	1605 ± 2.3
298.15 K, x1 = 0.0002	–	1497.3 ± 1.1
298.15 K, x1 = 0.0006	–	1498.9 ± 1.1
298.15 K, x1 = 0.0012	–	1501.2 ± 1.1
298.15 K, x1 = 0.0018	–	1503.4 ± 1.1
298.15 K, x1 = 0.0026	–	1506.3 ± 1.1
298.15 K, x1 = 0.004	–	1511.1 ± 1.1
298.15 K, x1 = 0.0054	–	1515.9 ± 1.1
298.15 K, x1 = 0.0067	–	1520.1 ± 1.2
298.15 K, x1 = 0.0083	–	1525.4 ± 1.2
298.15 K, x1 = 0.0097	–	1529.9 ± 1.2
298.15 K, x1 = 0.0113	–	1534.7 ± 1.2
298.15 K, x1 = 0.0123	–	1537.8 ± 1.2
298.15 K, x1 = 0.0138	–	1542.2 ± 1.2
298.15 K, x1 = 0.0153	–	1546.5 ± 1.2
298.15 K, x1 = 0.0168	–	1550.8 ± 1.2
298.15 K, x1 = 0.0184	–	1555.2 ± 1.2
298.15 K, x1 = 0.0195	–	1558 ± 1.2
298.15 K, x1 = 0.0205	–	1560.8 ± 1.2
298.15 K, x1 = 0.0221	–	1564.7 ± 1.2
298.15 K, x1 = 0.0243	–	1570.1 ± 1.2
298.15 K, x1 = 0.0264	–	1575.3 ± 1.2
298.15 K, x1 = 0.0287	–	1580.3 ± 1.2
298.15 K, x1 = 0.0308	–	1584.9 ± 1.2
298.15 K, x1 = 0.0326	–	1588.7 ± 1.2
298.15 K, x1 = 0.0347	–	1593 ± 1.2
298.15 K, x1 = 0.0362	–	1596.1 ± 1.2
298.15 K, x1 = 0.0378	–	1599.1 ± 1.2
298.15 K, x1 = 0.0396	–	1602.6 ± 1.2
298.15 K, x1 = 0.0414	–	1605.7 ± 1.2
298.15 K, x1 = 0.0432	–	1608.9 ± 1.2
298.15 K, x1 = 0.045	–	1612 ± 1.2
298.15 K, x1 = 0.0465	–	1614.4 ± 1.2
298.15 K, x1 = 0.0484	–	1617.3 ± 1.2
298.15 K, x1 = 0.0503	–	1620.2 ± 1.2
298.15 K, x1 = 0.0523	–	1623.2 ± 1.2
298.15 K, x1 = 0.0539	–	1625.4 ± 1.2
298.15 K, x1 = 0.0554	–	1627.5 ± 1.2
298.15 K, x1 = 0.057	–	1629.7 ± 1.2
298.15 K, x1 = 0.0588	–	1631.9 ± 1.2
298.15 K, x1 = 0.0607	–	1634.3 ± 1.2
298.15 K, x1 = 0.0624	–	1636.4 ± 1.2
298.15 K, x1 = 0.0647	–	1639 ± 1.2
298.15 K, x1 = 0.0672	–	1641.8 ± 1.2
298.15 K, x1 = 0.0698	–	1644.5 ± 1.2
298.15 K, x1 = 0.0724	–	1647.1 ± 1.2
298.15 K, x1 = 0.0743	–	1648.9 ± 1.2
298.15 K, x1 = 0.0774	–	1651.7 ± 1.2
298.15 K, x1 = 0.0814	–	1655.1 ± 1.2
298.15 K, x1 = 0.0847	–	1657.7 ± 1.2
298.15 K, x1 = 0.0877	–	1659.9 ± 1.2
298.15 K, x1 = 0.0907	–	1661.9 ± 1.2
298.15 K, x1 = 0.0941	–	1664.1 ± 1.2
298.15 K, x1 = 0.0968	–	1665.7 ± 1.2
298.15 K, x1 = 0.0975	–	1666.1 ± 1.2
298.15 K, x1 = 0.1007	–	1667.9 ± 1.2
298.15 K, x1 = 0.1013	–	1668.2 ± 1.2
298.15 K, x1 = 0.1045	–	1669.8 ± 1.2
298.15 K, x1 = 0.1057	–	1670.4 ± 1.2
298.15 K, x1 = 0.108	–	1671.4 ± 1.2
298.15 K, x1 = 0.1105	–	1672.6 ± 1.2
298.15 K, x1 = 0.1112	–	1672.8 ± 1.2
298.15 K, x1 = 0.1142	–	1674 ± 1.2
298.15 K, x1 = 0.1158	–	1674.7 ± 1.2
298.15 K, x1 = 0.1173	–	1675.2 ± 1.2
298.15 K, x1 = 0.1201	–	1676.2 ± 1.2
298.15 K, x1 = 0.1217	–	1676.7 ± 1.2
298.15 K, x1 = 0.1233	–	1677.2 ± 1.2
298.15 K, x1 = 0.1262	–	1678.1 ± 1.2

From the NIST ThermoML archive (doi:10.1016/j.jct.2017.06.001)
